Target: T1, T. curvata BfaA (Thermomonospora curvata, UniProt D1ABB3)
T1 construct: gene Tcur_1573; native gene from genomic DNA (DSMZ), plasmid pNC964 (strain NS1164), crude E. coli cell-free extract
T1 sequence (D1ABB3 1-455): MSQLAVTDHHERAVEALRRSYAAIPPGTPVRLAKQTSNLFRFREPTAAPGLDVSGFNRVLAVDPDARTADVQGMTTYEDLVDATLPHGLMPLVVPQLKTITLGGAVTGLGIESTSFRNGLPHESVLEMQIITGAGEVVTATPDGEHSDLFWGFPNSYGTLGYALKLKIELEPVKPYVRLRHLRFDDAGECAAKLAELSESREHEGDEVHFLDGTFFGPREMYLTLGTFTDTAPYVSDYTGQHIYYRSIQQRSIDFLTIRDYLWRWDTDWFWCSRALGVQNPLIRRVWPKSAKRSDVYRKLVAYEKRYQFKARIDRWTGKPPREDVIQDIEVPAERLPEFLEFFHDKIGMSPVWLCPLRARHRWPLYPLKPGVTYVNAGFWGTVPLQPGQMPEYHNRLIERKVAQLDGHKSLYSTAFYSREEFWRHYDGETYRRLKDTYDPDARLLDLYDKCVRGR
Experiment: crude extract assay, GC-FID of 10-methyl fatty acid
Assay type: biochemical
Details: 10 mM NADPH, 37 °C, 16 h; heat-inactivated BfaB lysate with 10-methylene acyl chains

Compound: NC(=O)C1=CN([C@@H]2O[C@H](COP(=O)(O)OP(=O)(O)OC[C@H]3O[C@@H](n4cnc5c(N)ncnc54)[C@H](OP(=O)(O)O)[C@@H]3O)[C@@H](O)[C@H]2O)C=CC1 [NADPH]
- crude extract assay, GC-FID of 10-methyl fatty acid: We detected 10-methylstearic acid production in the presence of NADPH, but not NADH
